Several values for one entry are separate records, joined by “and”; a condition that tells them apart may be missing. Equal entries are not always repeated.

The target in the assay is T1, sGC enzyme (Homo sapiens, UniProt Q02108+Q02153).
T1 construct: host or cells: HEK293 expressing GloSensor 40F cGMP
T1 sequence (Q02108 1-690): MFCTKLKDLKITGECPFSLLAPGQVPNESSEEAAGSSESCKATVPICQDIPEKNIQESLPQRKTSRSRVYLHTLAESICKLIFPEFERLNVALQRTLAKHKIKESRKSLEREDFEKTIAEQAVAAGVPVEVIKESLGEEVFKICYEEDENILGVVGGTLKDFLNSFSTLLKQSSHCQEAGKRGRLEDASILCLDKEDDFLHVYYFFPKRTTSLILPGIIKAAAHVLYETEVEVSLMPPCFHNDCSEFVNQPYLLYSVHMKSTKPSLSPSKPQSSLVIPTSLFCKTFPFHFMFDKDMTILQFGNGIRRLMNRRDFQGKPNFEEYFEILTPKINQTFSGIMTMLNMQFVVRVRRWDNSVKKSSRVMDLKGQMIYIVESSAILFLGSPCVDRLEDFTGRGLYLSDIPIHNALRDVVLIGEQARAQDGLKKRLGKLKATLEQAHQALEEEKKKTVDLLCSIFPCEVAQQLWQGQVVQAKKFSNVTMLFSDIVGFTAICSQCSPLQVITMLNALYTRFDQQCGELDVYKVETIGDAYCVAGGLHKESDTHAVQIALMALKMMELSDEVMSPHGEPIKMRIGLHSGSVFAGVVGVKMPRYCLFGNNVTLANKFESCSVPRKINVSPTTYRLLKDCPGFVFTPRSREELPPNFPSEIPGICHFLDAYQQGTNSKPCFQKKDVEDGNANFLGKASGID
T1 sequence (Q02153 1-619): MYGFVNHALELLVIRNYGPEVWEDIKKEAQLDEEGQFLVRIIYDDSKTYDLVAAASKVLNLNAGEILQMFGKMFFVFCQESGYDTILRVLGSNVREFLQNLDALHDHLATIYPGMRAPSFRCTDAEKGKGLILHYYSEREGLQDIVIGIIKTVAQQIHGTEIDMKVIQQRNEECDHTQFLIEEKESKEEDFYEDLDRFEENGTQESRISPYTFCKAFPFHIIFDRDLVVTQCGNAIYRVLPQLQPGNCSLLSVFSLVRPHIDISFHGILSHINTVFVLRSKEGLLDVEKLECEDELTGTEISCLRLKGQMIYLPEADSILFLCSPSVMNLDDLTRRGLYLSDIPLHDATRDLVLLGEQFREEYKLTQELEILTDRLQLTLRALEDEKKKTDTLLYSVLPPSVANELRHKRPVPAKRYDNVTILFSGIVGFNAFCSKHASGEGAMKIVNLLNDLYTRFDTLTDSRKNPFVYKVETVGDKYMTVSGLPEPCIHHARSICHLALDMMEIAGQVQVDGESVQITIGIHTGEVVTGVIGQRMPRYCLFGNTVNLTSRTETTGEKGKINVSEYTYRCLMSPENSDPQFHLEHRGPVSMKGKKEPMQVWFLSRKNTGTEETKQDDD
Description: cGMP GloSensor cell-based assay, 384-well format (Example 2B). To be noted: HEK293 GloSensor 40F cGMP cells, 10 μM DETA-NONOate; 50% of high control response (Compound Y); read-out: sGC_HEK_GloSensor EC50/IC50 Abs (Norm) (nM) Binned. Here is the method: Data were normalized to a high control using the following equation: 100*(Sample—Low Control)/(High Control—Low Control), where the low control is the average of 16 samples treated with 1% DMSO, and the high control is the average of 16 samples treated with 30 μM of Compound Y depicted below. Data were fit using a 4-parameter fit (log(agonist) vs. response variable slope) using GraphPad Prism Software v.5. n=2 for all compounds. […] Compounds failing to elicit a minimum response of 50% are reported as >30 μM. For compounds run in duplicate or n higher than 2, the result herein given is the geometric mean of the several results obtained.
Human embryonic kidney cells (HEK293) cells expressing GloSensor™ 40F cGMP (Part No: CS182801, Promega) were used to evaluate the activity of test compounds. The luminescent biosensors (engineered luciferase) that were incorporated into these cells detect cGMP formed by the compounds stimulating the sGC enzyme and emit luminescence.
cGMP GloSensor cells were maintained in Dulbecco's Modification of Eagle's Medium (DMEM) supplemented with fetal bovine serum (FBS) (10% final) and hygromycine (200 μg/ml). The day before assay, cells were plated in DMEM with 10% FBS in a 50 μL volume at a density of 1.5×10^4 cells/well in a poly-D-lysine coated 384-well flat white-bottom plate (Corning Cat No 35661). Cells were incubated overnight at 37° C. in a humidified chamber with 5% CO2. The next day, medium was removed and cells were replaced with 40 μl/well of GloSensor™, […] (Promega Cat No E1291). Cells were treated for 90 minutes at 25° C. to allow the substrate to equilibrate in the cells. Test compounds and Diethylenetriamine NONOate (DETA-NONOate) was diluted to […] in serum-free CO2 independent medium and serally diluted at 4× dilutions to create 5× dose curve from which 10 ul was added to the wells (x uM concentration for test compound solution and 10 μM concentration for DETA-NONOate solution; wherein x is one of the following final concentrations).
For the kinetics studies, luminescense was measured right away for 0.2 sec per well with Envision (Perkin Elmer model No). For endpoint SAR screening, data were collected after 55 min incubation at room temperature.
Data analysis was carried out as indicated above in Example 2A.
As to `Cn1cc(-c2nc(N)c3c(n2)NC(=O)C3(C)C)nc1Cc1ccccc1F` [Compound I-12], the EC50 was > 1000 nM and < 100 nM.
On to `COc1cc(-c2ncc3c(n2)NC(=O)C3(C)C)nn1Cc1ccccc1F` [Compound I-24], for which the EC50 lay in the range of 100 to 1000 nM.
Regarding `CC(=O)c1cc(-c2ncc3c(n2)NC(=O)C3(C)C)nn1Cc1ccccc1F` [Compound I-25], the EC50 was 100 to 1000 nM.
Consider `COc1cc(-c2ncc3c(n2)N(C)C(=O)C3(C)C)nn1Cc1ccccc1F` [Compound I-26], for which the EC50 is above 1000 nM.
Turning to `COc1cc(-c2ncc3c(n2)NCC3(C)C)nn1Cc1ccccc1F` [Compound I-27], the EC50 lay within 100 to 1000 nM.
Take `COc1cc(-c2nc(O)c3c(n2)NC(=O)C3(C)C)nn1Cc1ccccc1F` [Compound I-28]: the EC50 was in the range of 100 to 1000 nM.
In the case of `CC1(C)C(=O)Nc2nc(-c3cc(O)n(Cc4ccccc4F)n3)ncc21` [Compound I-29], the EC50 is above 1000 nM.
The value for `CC1(C)C(=O)Nc2nc(-c3cc(OC(F)F)n(Cc4ccccc4F)n3)ncc21` [Compound I-31] was 100 to 1000 nM.
Turning to `CC1(C)C(=O)Nc2nc(-c3cc(OC(F)F)n(Cc4ccccc4F)n3)nc(O)c21` [Compound I-32], the EC50 is 100 to 1000 nM.
The value for `COc1cc(-c2ncc3c(n2)N(CC2CC2)C(=O)C3(C)C)nn1Cc1ccccc1F` [Compound I-33] was above 1000 nM; that for `CCOc1cc(-c2ncc3c(n2)NC(=O)C3(C)C)nn1Cc1ccccc1F` [Compound I-34] was above 1000 nM.
The value for `CCCOc1cc(-c2ncc3c(n2)NC(=O)C3(C)C)nn1Cc1ccccc1F` [Compound I-35] was above 1000 nM; that for `CC(C)Oc1cc(-c2ncc3c(n2)NC(=O)C3(C)C)nn1Cc1ccccc1F` [Compound I-36] was above 1000 nM; that for `CC1(C)C(=O)Nc2nc(-n3cc(O)c(Cc4ccccc4F)n3)ncc21` [Compound I-37] was above 1000 nM.
The value for `COc1cn(-c2ncc3c(n2)NC(=O)C3(C)C)nc1Cc1ccccc1F` [Compound I-38] was below 100 nM; that for `COc1c(Br)c(-c2ncc3c(n2)NC(=O)C3(C)C)nn1Cc1ccccc1F` [Compound I-40] was below 100 nM.
`COc1c(C)c(-c2nc(N)c3c(n2)NC(=O)C3(C)C)nn1Cc1ccccc1F` [Compound I-41]: the EC50 is 100 to 1000 nM.
The value for `COc1c(C)c(-c2nc(O)c3c(n2)NC(=O)C3(C)C)nn1Cc1ccccc1F` [Compound I-42] was above 1000 nM.
With `COc1c(C)c(-c2ncc3c(n2)NC(=O)C3(C)C)nn1Cc1ccccc1F` [Compound I-43], the EC50 is 100 to 1000 nM.
The value for `COc1c(Cl)c(-c2ncc3c(n2)NC(=O)C3(C)C)nn1Cc1ccccc1F` [Compound I-44] was below 100 nM.
For the compound `CC1(C)C(=O)Nc2nc(-c3cc(C#N)n(Cc4ccccc4F)n3)ncc21` [Compound I-45], the EC50 was below 100 nM.
For the compound `COc1cc(-c2nc(N)c3c(n2)NC(=O)C3(C)C)nn1Cc1ccccc1` [Compound I-51, 4-amino-2-(1-benzyl-5-methoxy-1H-pyrazol-3-yl)-5,5-dimethyl-5H-pyrrolo-[2,3-d]pyrimidin-6(7H)-one], the EC50 was below 100 nM.
Regarding `COc1cc(-c2ncc3c(n2)NC(=O)C3(C)C)nn1Cc1ccccc1` [Compound I-52], the EC50 lay in the range of 100 to 1000 nM.
Regarding `COc1cc(-c2ncc3c(n2)N(C(=O)OC(C)(C)C)C(=O)C3(C)C)nn1Cc1ccccc1` [Compound I-54, 2-(1-benzyl-5-methoxy-1H-pyrazol-3-yl)-5,5-dimethyl-6-oxo-5H-pyrrolo-[2,3-d]pyrimidine-7(6H)-carboxylate], the EC50 was in the range of 100 to 1000 nM.
The value for `COc1cc(-c2ncc3c(n2)NC(=O)C3(C)C)nn1Cc1cccc(F)c1` [Compound I-55] was below 100 nM; that for `COc1cc(-c2ncc3c(n2)NC(=O)C3(C)C)nn1Cc1ccccc1Cl` [Compound I-56] was 100 to 1000 nM; that for `COc1cc(-c2ncc3c(n2)NC(=O)C3(C)C)nn1Cc1ccc(F)cc1` [Compound I-57] was 100 to 1000 nM.
In the case of `COc1cc(-c2ncc3c(n2)NC(=O)C3(C)C)nn1Cc1ccc(C)cc1` [Compound I-58], the EC50 was below 100 nM.
With `COc1cc(-c2ncc3c(n2)NC(=O)C3(C)C)nn1Cc1cccc(Cl)c1` [Compound I-59], the EC50 was in the range of 100 to 1000 nM.
`COc1cc(-c2ncc3c(n2)NC(=O)C3(C)C)nn1Cc1cccc(C#N)c1` [Compound I-60]: the EC50 lay in the range of 100 to 1000 nM.
The value for `COc1cc(-c2ncc3c(n2)NC(=O)C3(C)C)nn1Cc1ccc(C(F)(F)F)cc1` [Compound I-62] was above 1000 nM; that for `COc1cc(-c2ncc3c(n2)NC(=O)C3(C)C)nn1Cc1ccc(C)cc1F` [Compound I-63] was below 100 nM.
As to `COc1cc(-c2ncc3c(n2)NC(=O)C3(C)C)nn1Cc1ccc(C(F)(F)F)c(F)c1` [Compound I-64], the EC50 was above 1000 nM.
As for `Cn1c(=O)[nH]c2nc(-c3cc(-c4ccon4)n(Cc4ccccc4F)n3)ncc21` [Compound I-65], the EC50 is above 30000 nM.
On to `Cn1cc(-c2ncc3c(n2)NC(=O)C3(C)C)nc1Cc1ccccc1F` [Compound I-66], for which the EC50 was above 1000 nM.
Turning to `COc1cn(-c2nnc3c(n2)NC(=O)C3(C)C)nc1Cc1ccccc1F` [Compound I-67], the EC50 fell in the range of 100 to 1000 nM.
Turning to `CC1(C)C(=O)Nc2nnc(-c3cc(-c4ccon4)n(Cc4ccccc4F)n3)nc21` [Compound I-68], the EC50 is above 1000 nM.
The value for `CC1(C)C(=O)Nc2nc(-c3cc(C#N)n(Cc4ccccc4F)n3)nnc21` [Compound I-69] was 100 to 1000 nM; that for `CC(=O)c1cc(-c2nnc3c(n2)NC(=O)C3(C)C)nn1Cc1ccccc1F` [Compound I-70] was 100 to 1000 nM; that for `CC1(C)C(=O)Nc2nc(-c3ccn(Cc4ccccc4F)n3)nc(N)c21` [Compound I-73, 4-amino-2-(1-(2-fluorobenzyl)-1H-pyrazol-3-yl)-5,5-dimethyl-5H-pyrrolo[2,3-d]pyrimidin-6(7H)-one] was 100 to 1000 nM.
For `CC1(C)C(=O)Nc2nc(-c3ccn(Cc4ccccc4F)n3)ncc21` [Compound I-74], the EC50 was 100 to 1000 nM.
Regarding `CC1(C)C(=O)Nc2nc(-c3ccn(Cc4ccccc4F)n3)nc(NCC3CC3)c21` [Compound I-75], the EC50 lay in the range of 100 to 1000 nM.
For `CC1(C)C(=O)Nc2nc(-c3ccn(Cc4ccccc4F)n3)nc(N3CCOCC3)c21` [Compound I-76], the EC50 was 100 to 1000 nM.
`Cc1nc(-c2ccn(Cc3ccccc3F)n2)nc2c1C(C)(C)C(=O)N2` [Compound I-77]: the EC50 was above 1000 nM.
Take `COc1nc(-c2ccn(Cc3ccccc3F)n2)nc2c1C(C)(C)C(=O)N2` [Compound I-78]: the EC50 is above 1000 nM.

For the origin of these results see patent US10844064B2, “sGC stimulators” (Cyclerion Therapeutics, Inc., priority 2014, dated 2020).
